Data as given in patent US8383128B2, “Method of protecting plant(s) and a process thereof” (priority 2008, dated 2013).

Test system: Helicoverpa armigera larvae (third instar)
Assay: Bioassay of meroterpenoid using H. armigera larvae (cotton leaf dip feeding)
Format: in vivo
Settings: for Mortality (%) / Survival (%): treated cotton leaves, recorded up to 6 days
Description: The cotton Bollworm, Helicoverpa armigera is considered as one of the major threats to present day intensive agriculture. […] Cotton leaves were surface sterilized with 0.5% sodium hypochlorite, rinsed in sterile water and shade dried. The leaves were dipped in respective concentration of the insecticide for 30 seconds and then they were drained and dried at room temperature. The turgidity was maintained by surrounding the petiole with cotton wool saturated with water. The petioles of the leaves with cotton swab were kept immersed in water and were used control. The entire setup was kept enclosed in mylar film cage and Helicoverpa armigera larvae (third instar) of 30-40 milligrams weight were allowed to feed. Mortality rate was recorded at 24 hours intervals up to 6 days.

COc1ccc(-c2cc3c(c(=O)o2)C[C@@]2(O)[C@@]4(C)C(=O)[C@@]5(OC)C(=O)O[C@]4(CC[C@@]2(C)O3)C5(C)C)cc1 [Terreulactone A, terreulactone A]
Mortality (%) (2.5 μg terreulactone A): 52.5% | Survival (%) (2.5 μg terreulactone A): 47.5% | Mortality (%) (5.0 μg terreulactone A): 62.5% | Survival (%) (5.0 μg terreulactone A): 37.5% | Mortality (%) (10 μg terreulactone A): 82.5% | Survival (%) (10 μg terreulactone A): 17.5% | mortality rate of the larval pests (in words) (larval pests fed on treated plant or plant parts): increased the mortality rate
